Results reported in the NIST ThermoML archive (doi:10.1016/j.fluid.2018.01.023).
± gives the expanded uncertainty stated by the source.

Assay: xn = mol fraction of the nth substance listed
Conditions: 92 K, Liquid, Buoyancy - hydrostatic balance with magnetic suspension - one sinker

Question: With `N#N` [nitrogen] + C as the compound, how does the mass density (159.1 kPa, x2 = 0.884) read?
Answer: The mass density was 451 ± 0.7 kg/m3.

Question: Which mass density (138.3 kPa, x1 = 0.967) does the source give for `CC` [ethane] + N#N here?
Answer: Its mass density is 650.5 ± 1.2 kg/m3.

Question: And the mass density (1039.4 kPa, x1 = 0.952)?
Answer: The mass density was 651.3 ± 0.9 kg/m3.
